Read-outs that look alike come from different tables or passages of the source.
Assays:
Assay type in all cases: cell-based, human
[1] = tested on: OVCAR-3 cells; experiment: SRB cell proliferation assay, OVCAR-3; details: for IC50: Homo sapiens
Procedure: OVCAR-3 cells (ATCC No. HTB-161™) were cultured in RPMI-1640 medium containing HEPES buffer (2.383 g/L), sodium bicarbonate (1.5 g/L), sodium pyruvate (0.11 g/L) supplemented with 20% fetal bovine serum, 10 µg/mL bovine insulin, 100 U/mL penicillin, and 100 μg/mL streptomycin (all from Sigma Aldrich).
Betulin 1 and its derivatives were dissolved in dimethyl sulfoxide (DMSO; Sigma Aldrich) as a 15 mM stock solution. Working solutions were prepared through the dilution of stock solutions with culture medium. The final DMSO concentration in culture media was adjusted to 0.2%. The effect of tested compounds on the proliferation of SK-OV-3 and OVCAR-3 cells was measured using the In Vitro Toxicology Assay Kit, Sulforhodamine B based (Sigma Aldrich). Cells were seeded in 96-well plates (Greiner Bio-One, Kremsmünster, Austria) at an initial density of 3 × 10^3 cells per well in 200 µL of culture medium. After 24 h of incubation, betulin 1 and its derivatives at a concentration range of 0.1 μM to 30 μM were added to the wells. Control cultures were treated with vehicle alone (0.2% DMSO). The incubation periods for cells with test compounds were 1 day, 3 days, and 5 days. After appropriate incubation periods, culture media were removed, and cells were fixed in 10% trichloroacetic acid solution for 60 min at 4 °C. After fixation, the TCA solution was removed, and the plates were washed three times with deionized water (300 μL/well) and dried. At the next step, cells were stained with 0.4% sulforhodamine B for 30 min. The excess dye was removed by washing three times with 1% (vol/vol) acetic acid. The protein-bound dye was dissolved in 200 μL 10 mM Tris base solution. Absorbance was measured at 570 nm and 690 nm (reference wavelength) using the MRX Revelation plate reader (Dynex Technologies, Chantilly, VA, USA).
GraphPad Prism 10.0.2 (GraphPad Software Inc., San Diego, CA, USA) software was used for calculations and the statistical analysis of the IC50 values (Table 1). IC50 was determined by using the “nonlinear regression” mode, and the “log(inhibitor) vs. normalised response—Variable slope” equation was chosen in GraphPad Prism software for calculations. The obtained data were normalized to run from 100% down to 0%, and logarithms of concentration were used. Graphs (Figure 2, Figure 3, Figure 4, Figure 5 and Figure 8, and Supplementary Figure S1) were also prepared using this software. In the case of the lack of normal distribution or homogeneity of variances, the remaining results were analyzed using a non-parametric Kruskal–Wallis test with multiple comparisons. Post hoc analysis was performed with the non-parametric equivalent of Tukey’s test. A p value of <0.05 was considered statistically significant. Otherwise, a one-way ANOVA followed by a Tukey’s post hoc test was applied. t-tests was used to perform pairwise comparisons between group means. Analysis was performed using Statistica 13.1 software (StatSoft, Tulsa, OK, USA).

[2] = tested on: OVCAR-3 cells; experiment: LDH release assay, OVCAR-3; details: OVCAR-3, 24 h
Procedure: In order to evaluate the cytotoxic effect, the release of LDH into the culture medium using the In Vitro Toxicology Assay Kit, Lactic Dehydrogenase Based (TOX7; Sigma Aldrich) was assessed. SK-OV-3 and OVCAR-3 cells were plated and cultured in 96-well plates (Greiner Bio-One) at the initial density of 5 × 10^3 cells per well in 100 µL of culture medium. The density of the cells was determined in the same manner as in the SRB assay. After 24 h, the media were replaced with the working solutions, which contained appropriate test compounds at concentrations of 3 μM, 10 μM, 30 μM, and control medium (0.2% DMSO). Cells were exposed to the test substances for 24 h. The background control comprised wells without cells with only control medium. To determine the maximal LDH release (high control), half of the control cultures were treated with lysis buffer. Wells with untreated cells were used as the low control of the assay. LDH activity in media was assessed according to the manufacturer’s protocol. The absorbance was measured at wavelengths of 490 nm and 690 nm (background), and the percentage of released enzyme was calculated for cells growing in the presence of compounds according to the formula:Cytotoxicity [%] = [(AT − AL)/(AH − AL)] × 100 where AT is the absorbance of treated wells; AL is low control; and AH is high control (maximal LDH release).
Cytotoxicity was expressed as a percentage of the released LDH calculated according to the difference between the absorbance of the treated and low control wells divided by the difference between the absorbance of the high control and low control wells.

[3] = tested on: SK-OV-3 cells; experiment: DNA fragmentation assay (Cell Death Detection ELISA, cytoplasmic fraction), SK-OV-3; details: for DNA fragmentation (enrichment factor, internucleosomal DNA fragments): SK-OV-3, 24 h, 3, 10, 30 µM
Procedure: Fragmentation of genomic DNA was determined by means of the Cell Death Detection ELISAPLUS kit (Roche, Basel, Switzerland). This method rests on the immunoenzymatic detection of DNA–histone complexes in the cytoplasmic cell fraction or cell culture supernatants. Cells were plated and cultured in 96-well plates (Greiner Bio-One) at the initial density of 5 × 10^3 cells per well in 100 µL of culture medium. Cells were allowed to attach and grow for 1 day prior to the addition of test reagents. Then, the media were replaced with the working solutions (3 µM, 10 µM, 30 µM), and cells were exposed to compounds 2–6 for 24 h. In some cases, 5 µM cyclosporin A (CsA, an inhibitor of the mitochondrial permeability transition) was added to the cells 30 min before treatment with the betulin derivative. Subsequently, cells were incubated concomitantly with both compounds. After a 24 h incubation period, plates were centrifuged (200× g; 10 min), media were removed, and cells were lysed for 30 min at room temperature. At the next step, the lysates were again spun (200× g; 10 min), and 20 µL of supernatants (cytoplasmic fractions) was moved to the new 96-well streptavidin-coated plate. In one experiment, the presence of mono- and oligonucleosomes was determined in 20 µL samples of centrifuged culture supernatants (media) to detect the permeability of plasma membrane (considered as an indicator of cell necrosis). Then, the sandwich ELISA assay was fulfilled according to the manufacturer’s protocol. Absorbance was measured at 405 nm and 490 nm (reference wavelength), and the enrichment factor of the cytoplasmic (or supernatant) fraction in mono- and oligonucleosomes was calculated according to the formula: EF = absorbance of sample cells/absorbance of control cells.
A high EF index in the cytoplasmic fraction (resulting from DNA fragmentation while maintaining the tightness of cell membranes) is a typical indicator of the relatively early stage of apoptosis.

SMILES | IC50 ([1]; 72 h, OVCAR-3, 3 days treatment, SRB assay, read-out: IC50) [µM] | IC50 ([1]; 120 h, OVCAR-3, 5 days treatment, SRB assay, read-out: IC50) [µM] | cytotoxicity (released LDH), loss of cell membrane integrity ([2]; 30 µM) | DNA fragmentation (enrichment factor, internucleosomal DNA fragments) [3] | IC50 ([1]; OVCAR-3, 72 h) [µM] | IC50 ([1]; OVCAR-3, 120 h) [µM] | concentration at which antiproliferative activity (decrease in the number of cells) was evident ([1]; OVCAR-3, SRB assay, 0.1–30 µM) [µM] | cytotoxicity (released LDH) ([2]; all concentrations (3, 10, 30 μM)) | effect of CsA on compound-induced cell death, DNA fragmentation ([3]; SK-OV-3, 24 h, with 5 µM cyclosporin A added 30 min before)
C=C(C)[C@@H]1CC[C@]2(CO)CC[C@]3(C)[C@H](CC[C@@H]4[C@@]5(C)CC[C@H](O)C(C)(C)[C@@H]5CC[C@]43C)[C@@H]12 [Compound 1, lup-20(29)-ene-3β,28-diol, reference compound] | 9.03 | 10.1 | loss of cell membrane integrity was also confirmed | significant increase | – | – | – | – | –
C#CC(=O)OC[C@]12CC[C@@H](/C(C)=C/P(=O)(OCC)OCC)C1C1CCC3[C@@]4(C)CC[C@H](O)C(C)(C)C4CC[C@@]3(C)[C@]1(C)CC2 (stereo partly shown) [Compound 6, E-29-diethoxyphosphoryl-28-O-propynoylbetulin] | – | – | – | moderate increases | 0.68 | 0.59 | 1 | significant cytotoxic activity | almost completely prevented

From article PMC10671498, “Antiproliferative and Cytotoxic Properties of Propynoyl Betulin Derivatives against Human Ovarian Cancer Cells: In Vitro Studies” (International Journal of Molecular Sciences, 2023)
